From patent publication US11318143B2, “Treatment of alcohol use disorder” (priority 2017, dated 2022)

What was measured:
[1] = test system: subjects with alcohol use disorder; details: treatment of AUD, literature, cited from earlier work; for effect size (Cohen's D): meta-analyses
[2] = test system: dopamine levels in the rat nucleus accumbens; assay: in vivo microdialysis in the nucleus accumbens in awake freely moving rats; design: species or system Wistar rats; details: for extracellular dopamine levels in the dialysate (percent of baseline): FIG. 1, varenicline 1.5 mg/kg, bupropion 2.5 mg/kg i.p., sampling 140 minutes, preliminary data; for extracellular DA levels / DA release in the rat nAc: FIGS. 1 to 5, overall statement
Experimental: Shown are dopamine levels measured in the dialysate expressed as percent of baseline. Drugs (mg/kg) or control solution (NaCl) was injected i.p. directly after time-point 0.
FIGS. 2 and 3 show results from in vivo microdialysis in the nucleus accumbens in awake freely moving male Wistar rats after injection of varenicline (1.5 mg/kg, i.p.) or bupropion (2.5, 5 and 10 mg/kg i.p.) Dopamine levels in the dialysate are expressed as percent of baseline. Drugs or control solution (NaCl) was injected directly after time-point 0.
FIG. 5 illustrates the Area Under the Curve (AUC) 0-140 minutes (Bup 5 vs Var+Bup 5: p<0.001.
A). Experiments that examine the effects of varenicline and bupropion (separately and in combination) on dopamine release in the nucleus accumbens (nAc; a central part of the brain reward system) using in vivo microdialysis in awake, freely moving rats have commenced. […] Rats were surgically implanted with a microdialysis probe into nAc, which two days later was coupled to a perfusion pump allowing liquid sampling from the extracellular space. After a stable baseline was obtained varenicline (1.5 mg/kg, […].), bupropion (2.5 mg/kg, i.p.) or control solution was administered and sampling continued for 140 minutes. […] Further, as long as bupropion produces an effect, this effect adds to the varenicline effect when the two drugs are given in combination.

relapses to drinking = details: chronic i.m. administration (Wiesbeck et al., 2001); cited from earlier work
[3] = test system: nicotinic acetylcholine receptors (nAChRs); details: systemic administration or site-directed injections in the VTA (Blomqvist et al., 1996; Ericson et al., 1998); cited from earlier work
[4] = test system: alcohol dependent individuals; details: cited from earlier work
[5] = test system: ethanol-induced stimulation and euphoria; details: McKee et al. (2009); cited from earlier work

In the case of `CC(=O)NCCCS(=O)(=O)O` [Acamprosate], the “Numbers-needed-to-treat (NNT)” value [1] is listed as 7.5 and the “effect size (Cohen's D)” value [1] is listed as 0.32.
In the case of `O=C1CC[C@@]2(O)[C@H]3Cc4ccc(O)c5c4[C@@]2(CCN3CC2CC2)[C@H]1O5` [Naltrexone], the “Numbers-needed-to-treat (NNT)” value [1] is listed as 8.6 and the “effect size (Cohen's D)” value [1] is listed as 0.2.
In the case of `CC(NC(C)(C)C)C(=O)c1cccc(Cl)c1` (stereo not shown) [bupropion], the “extracellular dopamine levels in the dialysate (percent of baseline)” value [2] is reported as “raise extracellular dopamine levels” and the “extracellular DA levels / DA release in the rat nAc” value [2] is reported as “increase extracellular DA levels”.
For `OCCN1CCN(CC/C=C2\c3ccccc3Sc3ccc(C(F)(F)F)cc32)CC1` [fluphentixole], the “relapses to drinking as compared to placebo” value (relapses to drinking) is listed as “worsened the condition”.
For `CNC1(C)C2CCC(C2)C1(C)C` (stereo not shown) [mecamylamine], the “ethanol intake and preference” value [3] is listed as “reduces”.
In the case of `c1cnc2cc3c(cc2n1)[C@@H]1CNC[C@H]3C1` [varenicline], the effect ([4]; females (O'Malley et al., 2017)) is given as “no effect”, the effect size ([4]; male alcoholics (O'Malley et al., 2017)) is given as 0.45 and the “ethanol-induced stimulation and euphoria” value [5] is given as “blocked”. The “extracellular dopamine levels in the dialysate (percent of baseline)” value [2] was “raise extracellular dopamine levels” and the “extracellular DA levels / DA release in the rat nAc” value [2] was “increase extracellular DA levels”.
